Values of other authors, collected in US11712576B2, “Method and apparatus for cancer treatment” (Minnesota Medical Physics LLC, priority 2018, dated 2023).
Values belong to the compound of their own block, whether it stands above or below them.

Legend:
lung cancer cells Lu-65 = details: highest concentrations in mM range (0.01-10 mM tested), 48 hours
adenosine receptor A2aAR = adenosine receptor A2aAR (Homo sapiens, UniProt P29274)
[1] = test system: melanoma, colon, prostate carcinoma, lymphoma, pancreatic and hepatocellular carcinomas
[2] = oral doses of 4 mg twice a day over a week period
[3] = test system: human glioblastoma U87MG cancer cells; details: agonist 100 nM combined with EFS (Helmholtz coils)
tumor = details: concentration of 100 μM

Sequence of adenosine receptor A2aAR (P29274 whole entry): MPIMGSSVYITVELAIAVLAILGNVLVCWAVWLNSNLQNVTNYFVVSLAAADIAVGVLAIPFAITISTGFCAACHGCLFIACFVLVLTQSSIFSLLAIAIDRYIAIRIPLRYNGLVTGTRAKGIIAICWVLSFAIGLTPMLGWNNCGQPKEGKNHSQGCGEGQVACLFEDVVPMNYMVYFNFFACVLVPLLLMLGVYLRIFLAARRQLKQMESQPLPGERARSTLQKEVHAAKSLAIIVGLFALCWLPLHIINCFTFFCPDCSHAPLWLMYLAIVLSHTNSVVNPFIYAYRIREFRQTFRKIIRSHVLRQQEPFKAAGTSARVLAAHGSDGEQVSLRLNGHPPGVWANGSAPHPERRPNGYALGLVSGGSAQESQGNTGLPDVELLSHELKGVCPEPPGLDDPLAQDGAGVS

Structure (SMILES): Nc1ncnc2c1ncn2[C@@H]1O[C@H](CO)[C@@H](O)[C@H]1O [adenosine]
- cancer cells destroyed (lung cancer cells Lu-65): 100%

- selectivity for A2aAR over the other adenosine receptors (adenosine receptor A2aAR): more than 50 fold
Structure (SMILES): Nc1nc2c(cnn2CCc2ccccc2)c2nc(-c3ccco3)nn12 [SCH-58261]

Structure (SMILES): CNC(=O)[C@H]1O[C@@H](n2cnc3c(NCc4cccc(I)c4)ncnc32)[C@H](O)[C@@H]1O [IB-MECA]
- effect on metastases, migrating mobility and proliferation of cancer cells [1]: reduction of metastases, migrating mobility of cancer cells and inhibition of proliferation

Structure (SMILES): CNC(=O)[C@H]1O[C@@H](n2cnc3c(NCc4cccc(I)c4)ncnc32)[C@H](O)[C@@H]1O [CF101]
- tolerability [2]: well tolerated
- apoptosis of cancer cells (normal cells refractory) (cancer cells): induce apoptosis of cancer cells

Structure (SMILES): CNC(=O)[C@H]1O[C@@H](n2cnc3c(NCc4cccc(I)c4)nc(Cl)nc32)[C@H](O)[C@@H]1O [CI-IB-MECA]
- increase in apoptosis attributed to EFS over agonist alone [3]: 25-30%
- effect on tumor growth (tumor): only a slowdown of tumor growth
- effect on metastases, migrating mobility and proliferation of cancer cells [1]: reduction of metastases, migrating mobility of cancer cells and inhibition of proliferation
- apoptosis of cancer cells (normal cells refractory) (cancer cells): induce apoptosis of cancer cells

Structure (SMILES): CNC(=O)c1cnn(-c2nc(N)c3ncn([C@@H]4O[C@H](CO)[C@@H](O)[C@H]4O)c3n2)c1 [Lexiscan]
- side effects (BBB; doses used for cardiac perfusion): strong, sometimes life-threatening side effects
- permeation of the BBB (BBB; in vivo): substantial permeation of the BBB
